Columns and labels:
[1] = test system: S. cerevisiae EG103 (SODWT); assay: S. cerevisiae central disc test, oxidative damage, strain SODWT; type: cell-based, Saccharomyces cerevisiae
Text: (§1) The central disc test was done according to the method presented by Islam et al.. Superoxide dismutase (CuZnSOD-Sod1) is a cytosolic enzyme that is faulty in strain EG118, whereas mitochondrial SOD is faulty in strain EG110 (MnSOD-Sod2). The strain EG133 has both Sod1 and Sod2 defects, while EG223 has a cytosolic catalase deficiency (Cat1). While EG103 is a competent strain that is identical to the wild-type (SODWT), EG is a dual isogenic strain for the Sod1 and Cat1 genes.

[2] = test system: S. cerevisiae EG110 (Sod2∆); assay: S. cerevisiae central disc test, oxidative damage, strain Sod2∆; type: cell-based, Saccharomyces cerevisiae
Text: as §1

[3] = test system: mouse erythrocytes; assay: Hemolytic activity in mice erythrocytes; type: cell-based; details: 31.25–500 μg/mL
Description: (§2) This test was performed on adult Swiss albino mouse (Mus musculus) erythrocytes. The mouse was collected from the Central Animal House of the Federal University of Piaui, Brazil. It was allowed free access to standard food and water ad libitum and was kept under controlled lighting (12 h dark/light cycles) at 24 ± 2°C. Blood was collected from the retro-orbital plexus of the mouse (male, 24 gm body weight). Hemolytic activity in mouse erythrocytes was performed, according to Jamialahmadi et al..

[4] = Hemolytic activity in mice erythrocytes; type: cell-based, Mus musculus; details: male, Swiss albino, mouse, 37°C, 2 h
Description: as §2

[5] = test system: Artemia salina; assay: Artemia salina bioassay (brine shrimp lethality bioassay)
Description: This test was carried out with a slight modification, as described by Amaral et al.. Briefly, shrimp cysts were incubated in a small aquarium containing a brine solution (50 mg of cysts and 300 mL of brine) for 48 h with direct lighting. […] […] In the negative (NC) and positive (PC) control groups, saline solution and potassium dichromate (K2Cr2O7) were added, respectively. The concentration range used in the case of the PC group was 31.25 to 500 μg/mL.

[6] = test system: S. cerevisiae EG118 (Sod1∆); assay: S. cerevisiae central disc test, oxidative damage, strain Sod1∆; type: cell-based, Saccharomyces cerevisiae
Text: as §1

[7] = test system: S. cerevisiae strains (SODWT, Sod1Δ, Sod2Δ, Cat1Δ, Sod1/Sod2Δ, Cat1Δ/Sod1Δ); assay: In vivo antioxidant (S. cerevisiae) test, all strains tested; type: cell-based, Saccharomyces cerevisiae
Text: as §1

[8] = test system: S. cerevisiae EG223 (Cat1∆); assay: S. cerevisiae central disc test, oxidative damage, strain Cat1∆; type: cell-based, Saccharomyces cerevisiae
Text: as §1

[9] = test system: S. cerevisiae EG (Sod1∆Cat1∆); assay: S. cerevisiae central disc test, oxidative damage, strain Sod1∆Cat1∆; type: cell-based, Saccharomyces cerevisiae
Text: as §1

[10] = test system: S. cerevisiae EG133 (Sod1∆Sod2∆); assay: S. cerevisiae central disc test, oxidative damage, strain Sod1∆Sod2∆; type: cell-based, Saccharomyces cerevisiae
Text: as §1

SMILES: CC(C)CCCC(C)CCO (stereo not shown) [3,7-Dimethyl-1-octanol, 3,7-dimethyl-1-octanol]
- oxidative damage ([1]; 0.9 μg/mL): 1.50 ± 0.70
- oxidative damage ([1]; 1.8 μg/mL): 1.50 ± 0.70
- oxidative damage ([1]; 7.2 μg/mL): 2.50 ± 0.70
- oxidative damage ([1]; 14.4 μg/mL): 2.00 ± 1.41
- oxidative damage ([1]; 32 μg/mL): 2.00 ± 0.00
- oxidative damage ([1]; 64 μg/mL): 1.50 ± 0.70
- oxidative damage ([1]; 128 μg/mL): 1.00 ± 1.41
- oxidative damage ([1]; 3.6 mg/mL): 2.00 ± 0.00
- oxidative damage ([1]; 256 mg/mL): 0.50 ± 0.70
- oxidative damage ([1]; 500 mg/mL): 2.50 ± 0.70
- oxidative damage ([2]; 0.9 μg/mL): 1.50 ± 0.70
- oxidative damage ([2]; 1.8 μg/mL): 2.00 ± 0.00
- oxidative damage ([2]; 7.2 μg/mL): 2.50 ± 0.70
- oxidative damage ([2]; 14.4 μg/mL): 1.50 ± 0.70
- oxidative damage ([2]; 32 μg/mL): 3.00 ± 0.00
- oxidative damage ([2]; 64 μg/mL): 1.00 ± 0.00
- oxidative damage ([2]; 128 μg/mL): 1.50 ± 0.70
- oxidative damage ([2]; 3.6 mg/mL): 2.50 ± 0.70
- oxidative damage ([2]; 256 mg/mL): 1.00 ± 1.41
- oxidative damage ([2]; 500 mg/mL): 2.50 ± 0.70
- cytotoxic effects in the hemolysis test [3]: did not exhibit significant cytotoxic effects
- hemolysis at 2 h, 31.25 μg/mL ([4]; mouse erythrocyte suspension, pH 7.4, 31.25 μg/mL): 3.66 ± 0.64%
- hemolysis at 2 h, 62.5 μg/mL ([4]; mouse erythrocyte suspension, pH 7.4, 62.5 μg/mL): 4.53 ± 0.06%
- hemolysis at 2 h, 250 μg/mL ([4]; mouse erythrocyte suspension, pH 7.4, 250 μg/mL): 5.64 ± 0.74%
- hemolysis at 2 h, 500 μg/mL ([4]; mouse erythrocyte suspension, pH 7.4, 500 μg/mL): 5.66 ± 0.56%
- hemolysis at 2 h, 125 μg/mL ([4]; pH 7.4, 125 μg/mL): 5.33 ± 0.75%
- cytotoxic effects in the A. Salina test ([5]; 31.25–500 μg/mL): did not exhibit significant cytotoxic effects
- concentration from which toxicity increased in a dose-dependent manner ([5]; 48 h of exposure): 125 µg/mL
- oxidative damage ([6]; 0.9 μg/mL): 0.50 ± 0.70
- oxidative damage ([6]; 1.8 μg/mL): 0.00 ± 0.00
- oxidative damage ([6]; 7.2 μg/mL): 1.00 ± 0.00
- oxidative damage ([6]; 14.4 μg/mL): 1.00 ± 1.41
- oxidative damage ([6]; 32 μg/mL): 2.50 ± 0.70
- oxidative damage ([6]; 64 μg/mL): 3.00 ± 0.00
- oxidative damage ([6]; 128 μg/mL): 1.50 ± 0.70
- oxidative damage ([6]; 3.6 mg/mL): 1.50 ± 0.70
- oxidative damage ([6]; 256 mg/mL): 2.50 ± 0.70
- oxidative damage ([6]; 500 mg/mL): 3.00 ± 0.00
- percentage modulation of oxidative damage caused by the stressor H2O2 ([7]; all strains and concentrations tested): more than 60%
- induction of oxidative damage ([7]; any concentration, any of the tested S. cerevisiae strains): did not induce oxidative damage
- oxidative damage ([8]; 0.9 μg/mL): 2.50 ± 0.70
- oxidative damage ([8]; 1.8 μg/mL): 3.50 ± 0.70
- oxidative damage ([8]; 7.2 μg/mL): 4.00 ± 0.00
- oxidative damage ([8]; 14.4 μg/mL): 3.50 ± 0.70
- oxidative damage ([8]; 32 μg/mL): 3.50 ± 2.12
- oxidative damage ([8]; 64 μg/mL): 3.50 ± 0.70
- oxidative damage ([8]; 128 μg/mL): 3.50 ± 2.12
- oxidative damage ([8]; 3.6 mg/mL): 2.50 ± 0.70
- oxidative damage ([8]; 256 mg/mL): 2.50 ± 2.12
- oxidative damage ([8]; 500 mg/mL): 3.00 ± 1.41
- oxidative damage ([9]; 0.9 μg/mL): 2.50 ± 0.70
- oxidative damage ([9]; 1.8 μg/mL): 3.00 ± 0.00
- oxidative damage ([9]; 7.2 μg/mL): 3.00 ± 1.41
- oxidative damage ([9]; 14.4 μg/mL): 2.00 ± 2.82
- oxidative damage ([9]; 32 μg/mL): 3.50 ± 0.70
- oxidative damage ([9]; 64 μg/mL): 3.00 ± 1.41
- oxidative damage ([9]; 128 μg/mL): 4.00 ± 1.41
- oxidative damage ([9]; 256 μg/mL): 3.00 ± 0.00
- oxidative damage ([9]; 3.6 mg/mL): 4.00 ± 1.41
- oxidative damage ([9]; 500 mg/mL): 3.50 ± 0.70
- oxidative damage ([10]; 0.9 μg/mL): 1.50 ± 0.70
- oxidative damage ([10]; 1.8 μg/mL): 1.00 ± 1.41
- oxidative damage ([10]; 7.2 μg/mL): 2.50 ± 0.70
- oxidative damage ([10]; 14.4 μg/mL): 2.00 ± 0.00
- oxidative damage ([10]; 32 μg/mL): 2.50 ± 0.70
- oxidative damage ([10]; 64 μg/mL): 3.50 ± 0.70
- oxidative damage ([10]; 128 μg/mL): 3.50 ± 0.70
- oxidative damage ([10]; 3.6 mg/mL): 2.00 ± 1.41
- oxidative damage ([10]; 256 mg/mL): 3.00 ± 1.41
- oxidative damage ([10]; 500 mg/mL): 2.50 ± 0.70

— paper PMC9712021 (Advances in Pharmacological and Pharmaceutical Sciences, 2022)
